This note sets out measurements from PubChem BioAssay (NCI).

What all share (experiment): NCI tumour cell line growth inhibition, 48 h
Test [1] relates to MOLT-4 leukemia.
Test [2] concerns HOP-92 NSCLC.
In test [3] the test system is K-562 leukemia.
The test system of test [4] is MCF7 breast.
The test system of test [5] is UACC-62 melanoma.
Test [6] concerns SK-MEL-5 melanoma.
Test [7] concerns UO-31 renal.
The subject of test [8] is MDA-MB-231 breast.
Test [9] deals with SNB-75 CNS.
The test system of test [10] is SK-MEL-28 melanoma.
The subject of test [11] is RXF 393 renal.
The subject of test [12] is KM12 colon.
The test system of test [13] is RPMI-8226 leukemia.
The test system of test [14] is A498 renal.

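Where inhibition never reached the appropriate level, the endpoint shown equals the highest concentration tested. Otherwise, values were interpolated linearly from a five-concentration, 48-hour dose response in 96-well plates. GI50 marks 50% less growth. At the TGI there is no net growth.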

Consider `CCc1ccc(COC(=O)C2=C(C)NC(C)=C(C(=O)OCc3ccc(CC)cn3)C2C2=COCCO2)nc1`, for which the TGI stood at 33.6 µM in test [1]; 43 µM in test [2]; 53.7 µM in test [3]; 43 µM in test [4]; 36.7 µM in test [5]; 26.1 µM in test [6]. The TGI in [7] was 60.4 µM; in [8], 45.8 µM; in [9], 39.3 µM; in test [10], 35 µM; in test [11], 37.3 µM; in [12], 87.1 µM.

As for `CCC(C)[C@@H](Nc1c(O)c2c(c(O)c1Cl)C(=O)C=CC2=O)C(=O)OC` (some centres undefined), the TGI in test [1] is 5.94 µM; in [2], above 10 µM; in test [3], above 10 µM; in test [4] it was above 10 µM; in test [5] it was above 10 µM; in test [6], 4.51 µM. Further, the TGI was 7.81 µM in [8], above 10 µM in test [9], 7.39 µM in [13] and above 10 µM in [12].

Take `CC(=O)OCC1OC(n2c3c(c(-c4ccc(Cl)cc4)c(C#N)c2=S)CCCC3)C(OC(C)=O)C(OC(C)=O)C1OC(C)=O` (centres undefined): the TGI in test [1] is above 100 µM; in test [2], 40.4 µM; in [3], above 100 µM; in test [4], above 100 µM; in test [5], 75.1 µM; in test [6], 58.6 µM. Also, the TGI in test [7] was above 100 µM; in [8] it was above 100 µM; in [9], 79.6 µM; in test [14], 79.3 µM; in [10] it was 94.6 µM; in [11], 84.4 µM. Also, the TGI in test [12] is above 100 µM.

With `CN(C)N1C(=O)S/C(=C\c2ccc([N+](=O)[O-])cc2)C1=O`, the TGI in test [1], in [2], in test [4], in [5], in [6] and in test [8] was above 100 µM each time. The TGI is 98.7 µM in test [9]; above 100 µM in test [14]; above 100 µM in [10]; above 100 µM in [11]; above 100 µM in [12].

In the case of `Cc1cc(=O)oc2cc(OCC(O)COC(C)C)ccc12` (centres undefined), the TGI in [1], in test [2], in [3], in [4], in [5] and in test [6] was above 100 µM each time. For the same compound, the TGI in test [7], in [8], in [9], in [13], in test [10] and in [12] was above 100 µM each time.

With `Cc1ccc2c(=O)cc(-c3ccc4ccccc4c3)[nH]c2n1`, the TGI turned out to be 29.1 µM in test [1]; 7.7 µM in test [2]; 13 µM in test [3]; 37.9 µM in test [4]; 24.1 µM in test [5]; 12.7 µM in [6]. Also, the TGI in test [7] is above 100 µM; in test [8], above 100 µM; in test [9], 14.6 µM; in [14] it was 15.5 µM; in test [13], 19.5 µM; in test [10] it was above 100 µM. The TGI in test [12] turned out to be 65.4 µM. Also, the GI50 in test [6] was 3.3 µM.

For `C=CC1CN(C(=O)OCC)N(C(=O)OCC)C1CCc1ccccc1` (centres undefined), the TGI in [1], in test [2], in test [3], in test [4], in [5] and in test [6] was above 100 µM throughout. In addition, the TGI in [7], in test [8], in test [9], in test [13], in [10] and in test [12] was above 100 µM in each case.

For `COc1cccc(/C=C2\S/C(=N/Nc3nc(C)c(C)s3)NC2=O)c1O`, the TGI in [1], in test [2], in test [4], in test [5], in [6] and in test [7] was above 100 µM each time. Further, the TGI in test [8], in test [9], in test [14], in [10], in test [11] and in test [12] was above 100 µM throughout.

With `COC1CC(OC2C(C)OC(OC3C(C)OC(OC4C(C)OC(O[C@H]5CC[C@@]6(C)C(=CC[C@]7(O)[C@@H]6C[C@@H](OC(C)=O)[C@@]6(C)[C@]7(O)CC[C@@]6(O)C(C)=O)C5)CC4OC)CC3OC)CC2OC)OC(C)C1O` (some centres undefined), the TGI in [1], in [2], in test [3], in [4], in test [5] and in [6] was above 25 µM throughout. Besides, the TGI in [7], in test [8], in test [9], in test [13] and in test [12] was above 25 µM each time.

In the case of `CCOP(=O)(OCC)C(NC(=O)C(C(F)(F)F)C(F)(F)F)c1ccccc1` (centres undefined), the TGI in [1], in test [2], in test [3], in test [4], in test [5] and in test [6] was above 100 µM throughout. For the same compound, the TGI in test [7] is above 100 µM; in test [8], above 100 µM; in test [9], above 100 µM; in [13], 67 µM; in test [10], above 100 µM; in [11] it was above 100 µM. This compound yielded a TGI in [12] above 100 µM.

On to `N[C@@H]1CCN(c2c(F)cc3c(=O)c(C(=O)O)cn4c3c2Oc2cc3c(ccc5ccccc53)cc2-4)C1`, for which the TGI in test [2] was 7.56 µM; in test [3], above 23.3 µM; in [4] it was above 100 µM; in [5], 26.7 µM; in test [6] it was above 40 µM; in test [7], above 100 µM. Besides, the TGI in [8] is above 100 µM; in test [9], above 100 µM; in test [14] it was above 44.8 µM; in [13] it was above 100 µM; in [10] it was above 93.2 µM; in test [11], above 100 µM. In test [12], this compound yielded a TGI above 100 µM. Further, in test [11], the GI50 was 3.78 µM.
